Data published in patent US20080027031A1, “Retinoids and Related Compounds for the Treatment of Neuroinflammatory Conditions, Diseases and Disorders” (KineMed, Inc., priority 2006, published 2008).
Read-outs that look alike come from different tables or passages of the source.

Columns and labels:
EAE mice = assay: Clinical scores for EAE symptoms in EAE induced by MOG peptide; assay type: in vivo, mouse
Method: Female C57BL/6 mice were immunized with MOG35-55 (EAE mice). All mice were labeled with 8% 2H2O for 1 week and received daily treatment with either vehicle or isotretinoin (10 mg/kg/day, ip). […] Data represent mean±SEM of 8 mice per group.
EAE was induced by subcutaneous injection of 100 μg synthetic MOG(35-55) peptide (QCB, Hopkinton, Mass.), emulsified in 0.1 ml complete Freund's adjuvant (CFA; incomplete Freund's adjuvant containing 4 mg/ml heat-killed M. tuberculosis H37Ra; both from Difco/Becton Dickinson), on day 0. Pertussis toxin (400 ng; List Biological) was injected intravenously on days 0 and 2. Sham-immunized animals were injected with CFA and PBS. Labeling with ^2H2O and treatment with isotretinoin (30 mg/kg/day) was initiated on the day of immunization, drug t.
Accordingly, the effect of isotretinoin was assessed on clinical symptoms of EAE during chronic treatment.

microglia [1] = details: for LPS-induced microglial proliferation: female C57BL/6 mice, LPS 1 mg/kg i.p. days 1, 3, 5, isotretinoin 40 mg/kg i.p. daily for 7 days, p<0.0001 vs LPS-treated animals
Method: Female c57bl/6 mice were labeled with ^2H2O for 7 days and injected with LPS (1 mg/kg, i.p.) on days 1, 3 and 5. Accutane (40 mg/kg, i.p.) was administered daily for the duration of the study. […] LPS (1 mg/kg) was given on days 1, 3, and 5 of treatment. Isotretinoin (40 mg/kg/day) and 8% ^2H2O label were given for 7 days commencing on Day 1.
Mice: All animal studies were carried out according to NIH guidelines for the care and use of laboratory animals and received prior approval by the KineMed internal animal care and use committee. 9-10 week old female C57/Bl6 mice (Taconic, Oxnard, Calif.) were housed in a climate controlled environment with a 12 hour light/dark cycle and were fed standard rodent chow and water ad libitum. For heavy water labeling, animals received a priming IP bolus of 35 ml/kg 0.9% NaCl in 99.9% ^2H2O and were maintained on 8% ^2H2O in drinking water until sacrifice.
To induce neuroinflammation, C57/Bl6 mice received 1 mg/kg E. coli LPS (L4391, Sigma Chemical, St Louis, Mo.; serotype 0111:B4; stock of 0.2 mgs/ml in PBS) IP on days 1, 3, and 5 of ^2H2O labeling and were sacrificed the morning of day 8. In order to minimize dilution of body water ^2H enrichment in animals due to the volume of injections, 5% ^2H2O solution was used as the vehicle for LPS. Isotretinoin (Sigma) was dissolved in DMSO and administered IP daily at 40 mg/kg, drug treatment was maintained throughout the labeling period.
Isolation and characterization of microglia: Anesthetized mice were transcardially perfused with ice-cold PBS (30 ml). Brains (without olfactory bulbs) were removed and kept in ice-cold PBS until processing. Tissue was passed once through a 1 mm mesh, and agitated in digestion buffer (12.5 ml of 150 mM NaCl, 5 mM KCl, 10 mM NaHCO3, 0.5 mM EDTA, 15 mM HEPES, 5 mM D-glucose, containing 0.5 mg/ml DNAse I [Roche] and 2.5 mg/ml trypsin [Sigma]) in a baffle flask for 25 minutes at 37° C. Trypsin was inactivated by the addition of 6.25 ml of media (1:1 Hams F10:DMEM, 10% FBS, 100,000 units/l penicillin G, 50 mg/l streptomycin sulfate, 2 mM L-glutamine). […]

microglia [2] = assay: Microglial proliferation in the EAE model of multiple sclerosis (2H2O labeling); assay type: in vivo, mouse; details: female C57BL/6 mice, MOG(35-55) immunization; isotretinoin 30 mg/kg/day i.p.; 7 days 2H2O labeling
Method: FIG. 3 depicts the inhibition of Microglial Proliferation in the experimental autoimmune encephalomyelitis (EAE) model of neuroinflammation. Female c57bl/6 mice were labeled with ^2H2O for 7 days and received either sham or EAE immunizations. EAE was induced by subcutaneous injection of 100 μg synthetic MOG(35-55) peptide emulsified in 0.1 ml complete Freund's adjuvant on day 0. Pertussis toxin (400 ng) was injected intravenously on days 0 and 2. Minocycline (45 mg/kg, i.p.) was dissolved in saline and injected twice a day for the first 3 days, and once a day for the rest of the study. Accutane (30 mg/kg, i.p.) was dissolved in DMSO and injected once a day for the duration of the study. Data represent mean±SD of 5 animals per group. * Indicates significant difference (p<0.0001) between sham and EAE groups treated with vehicle, # indicates significant difference (p<0.0001) between vehicle and drug treated EAE groups. […]
Analysis of cell turnover: GC/MS analysis was used to measure ^2H incorporation from ^2H2O into the deoxyribose moiety of purine deoxyribonucleotides during de novo DNA synthesis. Genomic DNA from microglia was isolated using a DNEasy tissue kit (Qiagen, Valencia, Calif.), and processed and analyzed by GC/MS. […]

SMILES: CC1=C(/C=C/C(C)=C/C=C/C(C)=C\C(=O)O)C(C)(C)CCC1 [isotretinoin, 13-cis-retinoic acid]
- delay of onset of clinical symptoms of EAE (EAE mice; MOG35-55 immunized mice, isotretinoin 10 mg/kg/day ip from the day before immunization, untreated onset 14 days PI): 1 week
- severity of clinical symptoms (clinical score) of EAE (EAE mice; between day 18 and day 25 PI vs vehicle-treated EAE mice, p<0.05, isotretinoin 10 mg/kg/day ip): reduced the severity of clinical symptoms significantly
- LPS-induced microglial proliferation (microglia [1]): dramatically inhibited
- LPS-induced microglial proliferation (microglia [1]; listed as isotrentinoin): Inhibits Microglial Proliferation
- suppression of proliferation of brain microglial cells under conditions of microglial stimulation (microglia [1]; overview statement, compared with clinically established inhibitors of neuroinflammation, including minocycline and glucocorticoids): as potent
- microglial proliferation in the EAE model (microglia [2]): dramatically inhibited
